Test results reported in patent US10189854B2, “Substituted pyrimidine compounds” (Grünenthal GmbH, priority 2014, dated 2019).

The molecules below were run against human PDE4B1 (Homo sapiens (Human), UniProt Q07343) (assay: cAMP HTRF assay to determine the activity of hPDE4B1). Details: IC50 inhibition of PDE4B; human recombinant PDE4B1, cAMP HTRF assay.
human PDE4B1, sequence (Q07343 whole entry): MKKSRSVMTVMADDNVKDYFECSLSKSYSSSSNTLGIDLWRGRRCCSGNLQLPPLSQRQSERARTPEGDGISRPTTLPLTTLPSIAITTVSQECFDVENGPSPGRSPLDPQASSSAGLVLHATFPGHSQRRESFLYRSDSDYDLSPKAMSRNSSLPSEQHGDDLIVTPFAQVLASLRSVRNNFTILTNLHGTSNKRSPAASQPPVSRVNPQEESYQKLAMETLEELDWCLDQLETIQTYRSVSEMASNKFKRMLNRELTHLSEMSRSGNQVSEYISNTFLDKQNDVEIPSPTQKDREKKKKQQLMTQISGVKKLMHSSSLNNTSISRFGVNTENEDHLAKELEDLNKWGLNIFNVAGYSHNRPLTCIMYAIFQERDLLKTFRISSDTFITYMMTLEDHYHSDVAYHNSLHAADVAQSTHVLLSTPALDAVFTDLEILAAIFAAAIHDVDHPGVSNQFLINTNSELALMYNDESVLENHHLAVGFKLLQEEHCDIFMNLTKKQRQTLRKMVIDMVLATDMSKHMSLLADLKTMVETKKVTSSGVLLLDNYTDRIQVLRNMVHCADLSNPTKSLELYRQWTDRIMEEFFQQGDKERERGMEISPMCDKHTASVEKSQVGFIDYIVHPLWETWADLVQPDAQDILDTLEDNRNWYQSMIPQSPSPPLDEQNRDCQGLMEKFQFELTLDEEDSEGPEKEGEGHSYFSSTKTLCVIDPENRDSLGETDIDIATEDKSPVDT
Format: biochemical
Experimental: Biological Testing cAMP HTRF® Assay to Determine the Activity of hPDE4B1
The inhibiting effect of the compounds on the enzyme activity of human PDE4B1 was measured by the quantification of 5′-adenosine monophosphate (5′-AMP), which is formed from 3′,5′-cyclic adenosine monophosphate (cAMP). Human recombinant enzyme, expressed in Sf9 cells, and the HTRF (homogeneous time-resolved fluorescence) detection method were used in the assay.
The test compound or water (control) was mixed with the human recombinant PDE4B1 enzyme (4.8 U) in a buffer consisting of 44.4 mM tris-HCl, 5.28 mM MgCl2, 2.64 mM DTT and 0.044% Tween 20 (pH 7.8). After adding the cAMP enzyme substrate (final concentration 40 nM), the mixture was incubated for 30 minutes at room temperature. Then a fluorescence acceptor (Dye2 marked with cAMP), a fluorescence donor (anti-cAMP antibody marked with a europium cryptate) and the non-specific phosphodiesterase inhibitor IBMX (3-isobutyl-1-methylxanthine; final concentration 1 mM) were added. After 60 min the fluorescence transfer, which correlates with the amount of remaining cAMP, was measured with a microplate reader (Rubystar, BMG) at λex=337 nm, λem=620 nm and λem=665 nm. The enzyme activity was calculated from the quotient formed from the measured signal at 665 nm and that at 620 nm. The result was expressed as the percentage inhibition of enzyme activity of the control (without PDE4 inhibitor). The enzyme was omitted for measurement of the basal control.
[N. Saldou et al., Comparison of recombinant human PDE4 isoforms: interaction with substrate and inhibitors, Cell. Signal. Vol. 10, No. 6, 427-440, 1998]. Several compounds according to the invention are tested in the above-described assay.
Molecule `O=C(c1ccc2c(c1)N(c1ncc(-c3c(F)cccc3F)cn1)CC21CC1)N1CCOCC1` [Compound 27, [1-[5-(2,6-Difluoro-phenyl)-pyrimidin-2-yl]-spiro[1,2-dihydro-indole-3,1′-cyclopropane]-6-yl]-morpholin-4-yl-methanone] has an IC50 of less than 0.1 µM.
Molecule `CS(=O)(=O)c1ccccc1-c1cnc(N2CC3(CC3)c3ccc(C(=O)N4CCOCC4)cc32)nc1` [Compound 28, [1-[5-(2-Methylsulfonyl-phenyl)-pyrimidin-2-yl]-spiro[1,2-dihydro-indole-3,1′-cyclopropane]-6-yl]-morpholin-4-yl-methanone] has an IC50 of 0.1 to 1 µM.
With `CS(=O)(=O)c1ccc(-c2cnc(N3CC4(CC4)c4ccc(C(=O)N5CCOCC5)cc43)nc2)c(F)c1` [Compound 29, [1-[5-(2-Fluoro-4-methylsulfonyl-phenyl)-pyrimidin-2-yl]-spiro[1,2-dihydro-indole-3,1′-cyclopropane]-6-yl]morpholin-4-yl-methanone] the IC50 was less than 0.1 µM.
`N#Cc1ccc(-c2cnc(N3CC4(CC4)c4ccc(C(=O)N5CCOCC5)cc43)nc2)c(F)c1` [Compound 30, 3-Fluoro-4-[2-[6-(morpholine-4-carbonyl)-spiro[1,2-dihydro-indole-3,1′-cyclopropane]-1-yl]-pyrimidin-5-yl]-benzonitrile] gave an IC50 of 0.1 to 1 µM.
`COc1ccccc1-c1cnc(N2CC3(CC3)c3ccc(C(=O)N4CCOCC4)cc32)nc1` [Compound 31, [1-[5-(2-Methoxyphenyl)-pyrimidin-2-yl]-spiro[1,2-dihydro-indole-3,1′-cyclopropane]-6-yl]-morpholin-4-yl-methanone] was tested, and the IC50 was less than 0.1 µM.
Molecule `NC(=O)c1cccc(F)c1-c1cnc(N2CC3(CC3)c3ccc(C(=O)N4CCOCC4)cc32)nc1` [Compound 32, 3-Fluoro-2-[2-[6-(morpholine-4-carbonyl)-spiro[1,2-dihydro-indole-3,1′-cyclopropane]-1-yl]-pyrimidin-5-yl]-benzamide] has an IC50 of 0.1 to 1 µM.
In the case of `O=C(c1ccc2c(c1)N(c1ncc(-c3ccccc3F)cn1)CC21CC1)N1CCN(CCO)CC1` [Compound 34, [1-[5-(2-Fluorophenyl)-pyrimidin-2-yl]-spiro[1,2-dihydro-indole-3,1′-cyclopropane]-6-yl]-[4-(2-hydroxy-ethyl)-piperazin-1-yl]-methanone], the IC50 is reported as less than 0.1 µM.
`NC(=O)c1ccc(F)c(-c2cnc(N3CC4(CC4)c4ccc(C(=O)N5CCOCC5)cc43)nc2)c1` [Compound 35, 4-Fluoro-3-[2-[6-(morpholine-4-carbonyl)-spiro[1,2-dihydro-indole-3,1′-cyclopropane]-1-yl]-pyrimidni-5-yl]-benzamide] showed an IC50 of less than 0.1 µM.
With `O=C(c1ccc2c(c1)N(c1ncc(-c3ccccc3F)cn1)CC21CC1)N1CC(O)C1` [Compound 36, [1-[5-(2-Fluorophenyl)-pyrimidin-2-yl]-spiro[1,2-dihydro-indole-3,1′-cyclopropane]-6-yl]-(3-hydroxy-azetidin-1-yl)-methanone] the IC50 was 0.1 to 1 µM.
For `CN1CCN(C(=O)c2ccc3c(c2)N(c2ncc(-c4ccccc4F)cn2)CC32CC2)CC1=O` [Compound 38, 4-[1-[5-(2-Fluorophenyl)-pyrimidin-2-yl]spiro[1,2-dihydro-indole-3,1′-cyclopropane]-6-carbonyl]-1-methyl-piperazin-2-one], the IC50 was less than 0.1 µM.
Work on `O=C(c1ccc2c(c1)N(c1ncc(-c3ccccc3C(F)F)cn1)CC21CC1)N1CCOCC1` [Compound 39, [1-[5-[2-(Difluoro-methyl)-phenyl]-pyrimidin-2-yl]spiro[1,2-dihydro-indole-3,1′-cyclopropane]-6-yl]-morpholin-4-yl-methanone] yielded an IC50 of 0.1 to 1 µM.
Molecule `N[C@@H]1CCN(C(=O)c2ccc3c(c2)N(c2ncc(-c4ccccc4F)cn2)CC32CC2)C1` [Compound 40, [(3R)-3-Amino-pyrrolidin-1-yl]-[1-[5-(2-fluorophenyl)-pyrimidin-2-yl]-spiro[1,2-dihydro-indole-3,1′-cyclopropane]-6-yl]-methanone] has an IC50 of less than 0.1 µM.
`CN(CCN)C(=O)c1ccc2c(c1)N(c1ncc(-c3ccccc3F)cn1)CC21CC1` [Compound 41, N-(2-Amino-ethyl)-1-[5-(2-fluorophenyl)-pyrimidin-2-yl]-N-methyl-spiro[1,2-dihydro-indole-3,1′-cyclopropane]-6-carboxylic acid amide] showed an IC50 of less than 0.1 µM.
Work on `CS(=O)(=O)c1ccc(F)c(-c2cnc(N3CC4(CC4)c4ccc(C(=O)N5CCOCC5)cc43)nc2)c1` [Compound 42, [1-[5-(2-Fluoro-5-methylsulfonyl-phenyl)-pyrimidin-2-yl]-spiro[1,2-dihydro-indole-3,1′-cyclopropane]-6-yl]-morpholin-4-yl-methanone] yielded an IC50 of less than 0.1 µM.
With `O=C(c1ccc2c(c1)N(c1ncc(-c3ccc(F)cc3)cn1)CC21CC1)N1CCOCC1` [Compound 43, [1-[5-(4-Fluorophenyl)-pyrimidin-2-yl]-spiro[1,2-dihydro-indole-3,1′-cyclopropane]-6-yl]-morpholin-4-yl-methanone] the IC50 was less than 0.1 µM.
In the case of `O=C(c1ccc2c(c1)N(c1ncc(-c3ccccc3F)cn1)CC21CC1)N1CC[C@@H](O)C1` [Compound 44, [1-[5-(2-Fluorophenyl)-pyrimidin-2-yl]-spiro[1,2-dihydro-indole-3,1′-cyclopropane]-6-yl]-[(3R)-3-hydroxy-pyrrolidin-1-yl]-methanone], the IC50 is reported as less than 0.1 µM.
Work on `O=C(c1ccc2c(c1)N(c1ncc(-c3ccccc3F)cn1)CC21CC1)N1CC[C@H](O)C1` [Compound 45, [1-[5-(2-Fluorophenyl)-pyrimidin-2-yl]-spiro[1,2-dihydro-indole-3,1′-cyclopropane]-6-yl]-[(3S)-3-hydroxy-pyrrolidin-1-yl]-methanone] yielded an IC50 of 0.1 to 1 µM.
Molecule `CN(C(=O)c1ccc2c(c1)N(c1ncc(-c3ccccc3F)cn1)CC21CC1)C1CC1` [Compound 46, N-Cyclopropyl-1-[5-(2-fluorophenyl)-pyrimidin-2-yl]-N-methyl-spiro[1,2-dihydro-indole-3,1′-cyclopropane]-6-carboxylic acid amide] has an IC50 of 0.1 to 1 µM.
`CCN(CC)C(=O)c1ccc2c(c1)N(c1ncc(-c3ccccc3F)cn1)CC21CC1` [Compound 47, N,N-Diethyl-1-[5-(2-fluorophenyl)-pyrimidin-2-yl]-spiro[1,2-dihydro-indole-3,1′-cyclopropane]-6-carboxylic acid amide] was tested, and the IC50 was 0.1 to 1 µM.
Molecule `COc1cccc(-c2cnc(N3CC4(CC4)c4ccc(C(=O)N5CCOCC5)cc43)nc2)c1` [Compound 48, [1-[5-(3-Methoxyphenyl)-pyrimidin-2-yl]-spiro[1,2-dihydro-indole-3,1′-cyclopropane]-6-yl]-morpholin-4-yl-methanone] has an IC50 of less than 0.1 µM.
Molecule `O=C(c1ccc2c(c1)N(c1ncc(-c3ccccc3)cn1)CC21CC1)N1CCNCC1` [Compound 49, [1-(5-Phenyl-pyrimidin-2-yl)-spiro[1,2-dihydro-indole-3,1′-cyclopropane]-6-yl]-piperazin-1-yl-methanone] has an IC50 of less than 0.1 µM.
`O=C(c1ccc2c(c1)N(c1ncc(-c3cc(F)cc(F)c3)cn1)CC21CC1)N1CCOCC1` [Compound 50, [1-[5-(3,5-Difluoro-phenyl)-pyrimidin-2-yl]-spiro[1,2-dihydro-indole-3,1′-cyclopropane]-6-yl]-morpholin-4-ylmethanone] gave an IC50 of less than 0.1 µM.
Molecule `O=C(c1ccc2c(c1)N(c1ncc(-c3cccc(Cl)c3)cn1)CC21CC1)N1CCOCC1` [Compound 51, [1-[5-(3-Chlorophenyl)-pyrimidin-2-yl]-spiro[1,2-dihydro-indole-3,1′-cyclopropane]-6-yl]-morpholin-4-yl-methanone] has an IC50 of 0.1 to 1 µM.
`Cc1ccc(F)c(-c2cnc(N3CC4(CC4)c4ccc(C(=O)N5CCOCC5)cc43)nc2)c1` [Compound 52, [1-[5-(2-Fluoro-5-methyl-phenyl)-pyrimidin-2-yl]-spiro[1,2-dihydro-indole-3,1′-cyclopropane]-6-yl]-morpholin-4-yl-methanone] was tested, and the IC50 was less than 0.1 µM.
With `O=C(c1ccc2c(c1)N(c1ncc(-c3ccc(F)c(F)c3)cn1)CC21CC1)N1CCOCC1` [Compound 53, [1-[5-(3,4-Difluoro-phenyl)-pyrimidin-2-yl]-spiro[1,2-dihydro-indole-3,1′-cyclopropane]-6-yl]-morpholin-4-yl-methanone] the IC50 was 0.1 to 1 µM.
Molecule `NC(=O)c1cccc(-c2cnc(N3CC4(CC4)c4ccc(C(=O)N5CCOCC5)cc43)nc2)c1` [Compound 54, 3-[2-[6-(Morpholine-4-carbonyl)-spiro[1,2-dihydro-indole-3,1′-cyclopropane]-1-yl]-pyrimidin-5-yl]-benzamide] has an IC50 of less than 0.1 µM.
For `O=C1CN(C(=O)c2ccc3c(c2)N(c2ncc(-c4ccccc4)cn2)CC32CC2)CCN1` [Compound 55, 4-[1-(5-Phenyl-pyrimidin-2-yl)-spiro[1,2-dihydro-indole-3,1′-cyclopropane]-6-carbonyl]-piperazin-2-one], the IC50 was less than 0.1 µM.
With `N#Cc1cccc(-c2cnc(N3CC4(CC4)c4ccc(C(=O)N5CCOCC5)cc43)nc2)c1` [Compound 56, 3-[2-[6-(Morpholine-4-carbonyl)-spiro[1,2-dihydro-indole-3,1′-cyclopropane]-1-yl]-pyrimidin-5-yl]-benzonitrile] the IC50 was less than 0.1 µM.
